From patent US20060094003A1, “Acetylcholine-dependent current as a novel ionic target for atrial fibrillation” (priority 2004, published 2006)

Columns and labels:
[1] = system: IKH; assay: Patch-clamp of TQ-sensitive IKH component in LA cardiomyocytes of control and AT dogs; assay type: cell-based, canine; settings: at −110 mV
Protocol: Briefly, dogs were subjected to 7-13 days of AT at about 400 beats per minute (bpm). LA preparations were then coronary-perfused and studied intact in vitro or subjected to cardiomyocyte isolation. IKH was studied with patch clamp.
Adult dogs were divided into control and AT groups. AT dogs were initially anesthetized with diazepam (0.25 mg/kg IV), ketamine (5.0 mg/kg IV), and halothane (1% to 2%) for transvenous insertion of right ventricular (RV) and right atrial (RA) unipolar pacing leads connected to ventricular and atrial pacemakers implanted in the neck. Pacing began 24 hours after pacemaker implantation. AV block was created by radiofrequency catheter ablation and the RV demand-pacemaker was programmed to 80 bpm. The RA was then tachypaced (400 bpm) for 7-13 days.
On study days, dogs were anesthetized with pentobarbital (30 mg·kg^−1 I.V.) and artificially ventilated. Hearts and adjacent lung tissue were excised via a left thoracotomy and immersed in oxygenated Tyrode solution. […]
For single cardiomyocytes, currents were recorded with whole-cell patch-clamp at 36±0.5° C. […] To control for cell-size variability, currents are expressed as densities (pA/pF). […]

[2] = target: T1, Kir 3.1/3.4 currents (Homo sapiens, UniProt P48544+P48549); settings: Jin & Lu, 1999; cited from earlier work
T1 sequence (P48549 1-501): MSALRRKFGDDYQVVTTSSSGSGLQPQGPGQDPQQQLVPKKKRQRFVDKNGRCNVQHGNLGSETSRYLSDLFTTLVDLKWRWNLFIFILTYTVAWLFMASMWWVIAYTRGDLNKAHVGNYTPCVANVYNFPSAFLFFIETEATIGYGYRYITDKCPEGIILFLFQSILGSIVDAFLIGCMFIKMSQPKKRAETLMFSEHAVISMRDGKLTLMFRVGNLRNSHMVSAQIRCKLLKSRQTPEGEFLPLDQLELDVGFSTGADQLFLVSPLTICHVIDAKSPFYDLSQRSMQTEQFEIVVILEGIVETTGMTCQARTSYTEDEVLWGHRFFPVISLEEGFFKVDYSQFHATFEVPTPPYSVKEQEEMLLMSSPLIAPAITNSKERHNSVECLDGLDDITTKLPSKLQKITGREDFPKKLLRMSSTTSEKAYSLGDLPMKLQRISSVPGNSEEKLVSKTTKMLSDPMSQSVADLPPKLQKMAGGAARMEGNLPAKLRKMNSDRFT
T1 sequence (P48544 1-419): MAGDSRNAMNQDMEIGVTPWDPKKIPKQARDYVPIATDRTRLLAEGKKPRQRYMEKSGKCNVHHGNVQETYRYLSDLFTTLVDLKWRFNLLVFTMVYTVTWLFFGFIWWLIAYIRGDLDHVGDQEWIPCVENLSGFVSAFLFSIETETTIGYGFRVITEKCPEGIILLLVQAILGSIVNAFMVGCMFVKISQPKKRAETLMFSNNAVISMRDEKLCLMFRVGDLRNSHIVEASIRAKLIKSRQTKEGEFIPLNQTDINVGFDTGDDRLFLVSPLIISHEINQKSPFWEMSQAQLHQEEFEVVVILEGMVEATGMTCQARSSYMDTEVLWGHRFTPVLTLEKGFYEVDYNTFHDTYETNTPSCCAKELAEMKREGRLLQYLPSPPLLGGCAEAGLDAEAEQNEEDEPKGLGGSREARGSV

tertiapin-Q
100 nM TQ-sensitive component of IKH ([1]; AT dogs): −2.8±0.5 pA/pF | 100 nM TQ-sensitive component of IKH ([1]; control dogs): −1.7±0.5 pA/pF | IC50 [2]: 8 nM
